The subject of one data set is A. viscous bacteria. In words: Quantitative bacterial aggregation by absorbance at 610 nm, A. viscous. It is filed as cell-based. As to conditions: for final test result, absorbance at 610 nm: A. viscous, end of experiment.
The next data set relates to Streptococcus oralis. In words: Quantitative bacterial aggregation by absorbance at 610 nm, S. oralis. It is filed as cell-based. As to conditions: for OD610: 0.9% NaCl; for change in OD (610 nm) over the course of the experiment / time by which significant drop in absorbance has occurred / time of peak of absorbance: S. oralis; for change in OD (610 nm) over the course of the experiment: about one hour. On the procedure:
To evaluate the aggregation quantitatively, Streptococcus oralis bacteria was suspended in sterile 0.9% NaCl medium in capped culture tubes. To each tube, a different test sample was added, and the absorbance of the medium at […] was monitored over a period of about one hour. Bacteria of this size will remain suspended in solution for several hours before settling out under gravity. This gives such a solution a uniform haziness or opacity that can be quantified by measuring the absorbance of the solution at 610 nm. The aggregation of bacteria results in clumps of bacterial matter, which initially raises absorbance, followed by a sharp drop in absorbance as the bacterial matter settles out, leaving an increasingly transparent solution. Therefore, a decrease in absorbance signals the formation of bacterial aggregates.

Data set [1] has as its system oral bacteria in stimulated whole saliva. In words: Aggregation of oral bacteria in stimulated whole saliva, culture dish wells. It is filed as cell-based, human. Conditions: 15 minutes at room temperature. As for the experimental part:
Stimulated whole saliva from a human volunteer was harvested and mixed either with an untreated control (water), metal salt solutions (0.2% zinc oxide or 0.1% zinc oxide/0.05% zinc citrate mixture), amino acid solutions (0.3% arginine, 1% arginine, or 0.94% lysine), or metal-amino acid complex solutions (1.2% zinc-lysine complex, 1.33% zinc-arginine complex, or 1% copper-lysine complex) as described in the present disclosure. The solutions were incubated for 15 minutes at room temperature in culture dish wells, then photographs were taken.

A short description of data set [2]: Stability of ZLC in solution (low-pH preparation). It is filed as physicochemical. As to conditions: final reaction mixture, clear, slightly acidic pH (<pH 7). On the procedure: In an alternative method, lysine HCl (2 molar equivalents) is dissolved in deionized water with stirring at room temperature. Concentrated hydrochloric acid equal to approximately 0.5 molar equivalent is added to the reaction mixture. ZnO (1 molar equivalent) is then added to the reaction mixture, and the mixture is stirred until complete dissolution occurs, typically within a minutes to a few hours. The pH of the reaction is kept at 6 or below. The ZLC complex can be kept in solution in the final reaction mixture, which is clear, for more than 3 months at slightly acidic pH (i.e., <pH 7) without precipitation of ZnO. Alternatively, the reaction mixture can be spray dried to yield ZLC powder, or the reaction mixture can be adjusted to a near-neutral pH (e.g., 6.8), and the crystalline salt of ZLC can be isolated upon slow evaporation of the concentrated ZLC reaction mixture.

Where [3] appears, read: 1 minute, 1.5% arginine, 0.94% lysine, 0.35% ZnCl2, 1.2% Zn-Lysine, 1.33% Zn-Arg.
[4] abbreviates: 14 minutes, 1.5% arginine, 0.94% lysine, 0.35% ZnCl2, 1.2% Zn-Lysine, 1.33% Zn-Arg.
Where [5] appears, read: 27 minutes, 1.5% arginine, 0.94% lysine, 0.35% ZnCl2, 1.2% Zn-Lysine, 1.33% Zn-Arg.
Setting [6] is: 46 minutes, 1.5% arginine, 0.94% lysine, 0.35% ZnCl2, 1.2% Zn-Lysine, 1.33% Zn-Arg.
Setting [7] is: 66 minutes, 1.5% arginine, 0.94% lysine, 0.35% ZnCl2, 1.2% Zn-Lysine, 1.33% Zn-Arg.
[8] abbreviates: 1 minute, 1.5% arginine, 0.94% lysine, 0.35% ZnCl2, 1.2% Zn-Lys, 1.33% Zn-Arg.
The mark [9] stands for this setting: 9 minutes, 1.5% arginine, 0.94% lysine, 0.35% ZnCl2, 1.2% Zn-Lys, 1.33% Zn-Arg.
Setting [10] is: 21 minutes, 1.5% arginine, 0.94% lysine, 0.35% ZnCl2, 1.2% Zn-Lys, 1.33% Zn-Arg.
Setting [11] is: 28 minutes, 1.5% arginine, 0.94% lysine, 0.35% ZnCl2, 1.2% Zn-Lys, 1.33% Zn-Arg.
The mark [12] stands for this setting: 40 minutes, 1.5% arginine, 0.94% lysine, 0.35% ZnCl2, 1.2% Zn-Lys, 1.33% Zn-Arg.
Setting [13] is: 55 minutes, 1.5% arginine, 0.94% lysine, 0.35% ZnCl2, 1.2% Zn-Lys, 1.33% Zn-Arg.
The mark [14] stands for this setting: 1.5% arginine, 0.94% lysine, 0.35% zinc chloride, 1.2% zinc-lysine complex, 1.33% zinc-arginine complex.
Where [15] appears, read: 0.2% zinc oxide, 0.1% zinc oxide/0.05% zinc citrate, 0.3% arginine, 0.94% lysine, 1.2% zinc-lysine, 1.33% zinc-arginine, 1% copper-lysine.
Where [16] appears, read: 1.2% zinc-lysine complex, 1.33% zinc-arginine complex.

Turning to `N=C(N)NCCC[C@H](N)C(=O)O` [Arginine, arginine], the OD610 with A. viscous bacteria (setting [3]) is given as 0.438; in the data set with A. viscous bacteria (1 minute, 5% arginine), 0.341; with A. viscous bacteria (setting [4]), 0.432; with A. viscous bacteria (14 minutes, 5% arginine) it was 0.334; with A. viscous bacteria (setting [5]), 0.427; in the data set with A. viscous bacteria (27 minutes, 5% arginine), 0.335. Further, the OD610 in the data set on A. viscous bacteria (setting [6]) is on record as 0.418; in the data set on A. viscous bacteria (46 minutes, 5% arginine), 0.333; in the data set with A. viscous bacteria (setting [7]), 0.424; in the data set with A. viscous bacteria (66 minutes, 5% arginine), 0.333; in the data set with Streptococcus oralis (setting [8]), 0.492; in the data set on Streptococcus oralis (1 minute, 5% arginine), 0.496. The OD610 is recorded as 0.473 in the data set with Streptococcus oralis (setting [9]); 0.468 in the data set with Streptococcus oralis (9 minutes, 5% arginine); 0.455 in the data set on Streptococcus oralis (setting [10]); 0.450 with Streptococcus oralis (21 minutes, 5% arginine); 0.449 in the data set with Streptococcus oralis (setting [11]); 0.446 in the data set on Streptococcus oralis (28 minutes, 5% arginine). The OD610 with Streptococcus oralis (setting [12]) was 0.441; in the data set on Streptococcus oralis (40 minutes, 5% arginine), 0.440; in the data set on Streptococcus oralis (setting [13]), 0.428; in the data set with Streptococcus oralis (55 minutes, 5% arginine), 0.435. For the same compound, the “change in OD (610 nm) over the course of the experiment” value (“change in OD (610 nm) over the course” for short) in the data set with Streptococcus oralis (setting [14]) and with Streptococcus oralis (5% arginine) was “no appreciable change in OD (610 nm) or a rise in OD (610 nm)” throughout. Besides, the “observation of aggregate formation in saliva” value (“observation” below) in data set [1] (setting [15]) and in data set [1] (1% arginine) was “no change was observed compared to the negative control” each time.
With `NCCCC[C@H](N)C(=O)O` [Lysine, lysine], the OD610 in the data set on A. viscous bacteria (setting [3]) is on record as 0.416; with A. viscous bacteria (setting [4]), 0.413; in the data set with A. viscous bacteria (setting [5]), 0.411; with A. viscous bacteria (setting [6]), 0.410; in the data set with A. viscous bacteria (setting [7]), 0.409; with Streptococcus oralis (setting [8]), 0.537. Besides, the OD610 with Streptococcus oralis (setting [9]) came out at 0.547; in the data set on Streptococcus oralis (setting [10]), 0.552; in the data set with Streptococcus oralis (setting [11]), 0.553; in the data set on Streptococcus oralis (setting [12]) it was 0.555; with Streptococcus oralis (setting [13]), 0.555. In the data set on Streptococcus oralis (setting [14]), the “change in OD (610 nm) over the course” value is “no appreciable change in OD (610 nm) or a rise in OD (610 nm)”. The “observation” value in data set [1] (setting [15]) was “no change was observed compared to the negative control”.
Take `Cl.Cl.NCCCCC(N)C(=O)[O-].NCCCCC(N)C(=O)[O-].O.O.[Zn+2]` (centres unmarked) [ZLC, zinc-lysine-chloride complex]: the OD610 in the data set with A. viscous bacteria (setting [3]) was 0.454; with A. viscous bacteria (setting [4]), 0.554; with A. viscous bacteria (setting [5]), 0.175; in the data set on A. viscous bacteria (setting [6]) it was 0.032; with A. viscous bacteria (setting [7]) it was 0.014; in the data set with Streptococcus oralis (setting [8]) it was 0.549. The OD610 with Streptococcus oralis (setting [9]) is given as 0.551; in the data set with Streptococcus oralis (setting [10]) it was 0.574; with Streptococcus oralis (setting [11]), 0.515; in the data set on Streptococcus oralis (setting [12]), 0.357; in the data set on Streptococcus oralis (setting [13]), 0.182. In the data set on A. viscous bacteria, the “final test result, absorbance at 610 nm” value was “nearly zero absorbance”. The “change in OD (610 nm) over the course” value in the data set on Streptococcus oralis (setting [14]) is “peak of absorbance at about 21 minutes, followed by a significant drop”. Further, in the data set on Streptococcus oralis (setting [16]), the “time by which significant drop in absorbance has occurred” value is given as “about 55 minutes”. Moreover, the “time of peak of absorbance” value in the data set on Streptococcus oralis (setting [16]) was “about 21 minutes”. Moreover, the “observation” value in data set [1] (setting [15]) is “Large aggregates of material slowly formed and settled to the bottom of the dishes”. For the same compound, the “time kept in solution without precipitation of ZnO” value in data set [2] is “more than 3 months”.
With `[Cl-].[Cl-].[Zn+2]` [ZnCl2, zinc chloride], the OD610 with A. viscous bacteria (setting [3]) was 0.315; in the data set with A. viscous bacteria (setting [4]), 0.315; with A. viscous bacteria (setting [5]) it was 0.316; in the data set with A. viscous bacteria (setting [6]) it was 0.391; in the data set on A. viscous bacteria (setting [7]), 0.255; in the data set on Streptococcus oralis (setting [8]), 0.572. The OD610 came to 0.584 in the data set on Streptococcus oralis (setting [9]); 0.615 with Streptococcus oralis (setting [10]); 0.680 in the data set with Streptococcus oralis (setting [11]); 0.652 with Streptococcus oralis (setting [12]); 0.397 with Streptococcus oralis (setting [13]). Moreover, in the data set with Streptococcus oralis (setting [14]), the “change in OD (610 nm) over the course” value is given as “no appreciable change in OD (610 nm) or a rise in OD (610 nm)”.
As for `[O]=[Zn]` [zinc oxide], the “observation” value in data set [1] (setting [15]) is “only undissolved and/or precipitated metal salt”.
The same measure, in the same setting: to copper-lysine complex belongs “Large aggregates of material slowly formed and settled to the bottom of the dishes”.
As to zinc-arginine complex [Zn-Arg], the OD610 with A. viscous bacteria (setting [3]) is 0.436; in the data set on A. viscous bacteria (setting [4]), 0.474; in the data set on A. viscous bacteria (setting [5]) it was 0.623; in the data set on A. viscous bacteria (setting [6]), 0.369; with A. viscous bacteria (setting [7]) it was 0.025; in the data set on Streptococcus oralis (setting [8]) it was 0.563. Further, the OD610 with Streptococcus oralis (setting [9]) was determined as 0.568; in the data set with Streptococcus oralis (setting [10]) it was 0.575; with Streptococcus oralis (setting [11]), 0.620; with Streptococcus oralis (setting [12]), 0.616; with Streptococcus oralis (setting [13]), 0.361. Further, the “final test result, absorbance at 610 nm” value in the data set on A. viscous bacteria is recorded as “nearly zero absorbance”. Besides, in the data set on Streptococcus oralis (setting [14]), the “change in OD (610 nm) over the course” value is “brief rise in absorbance which peaks at about 28 minutes, followed by a significant drop in absorbance”. The “time by which significant drop in absorbance has occurred” value in the data set with Streptococcus oralis (setting [16]) is “about 55 minutes”. Besides, the “time of peak of absorbance” value in the data set with Streptococcus oralis (setting [16]) is given as “about 28 minutes”. Also, the “observation” value in data set [1] (setting [15]) is “Large aggregates of material slowly formed and settled to the bottom of the dishes”.

The values are drawn from patent publication US20170157013A1, “Metal Amino Acid Complexes for Bacterial Aggregation” (Colgate-Palmolive Company, priority 2015, published 2017).
